Laboratory results: PubChem BioAssay (NCI)
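The compound was tested at five concentrations on cells cultured in 96-well plates, with a 48-hour exposure period. The concentration for 50% growth inhibition is given as GI50. TGI is the concentration that stops growth completely.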

test system: COLO 205 colon; assay: DTP human tumour cell line panel, 48 h

Structure (SMILES)	TGI	GI50
C[C@]12CCC3C4=C(CCC3C1CCC2=O)C(=O)[C@H]1O[C@H]1C4=O (stereo partly specified)	9.23 µM	
O=[N+]([O-])c1ccc(Cl)cc1N/N=C/c1ccnc2ccccc12	> 100 µM	
Oc1[nH]c2ccccc2c1N=Nc1nc(-c2ccc(Br)cc2)cs1	79.1 µM	
CC(C)c1cc2c(cc1S(=O)(=O)O)[C@@]1(C)CCC[C@@](C)(C(=O)O)C1CC2 (stereo partly specified)	> 100 µM	
N#CC(Cc1ccccc1)N(CCC1=CCCCC1)C(c1ccccc1)c1ccccc1 (stereo unspecified)	> 100 µM	
C/C(=C\CBr)CCC(Br)C(C)(C)Br (stereo unspecified)	> 100 µM	
C#CCn1c(=O)c2ccccc2n(CC#C)c1=O	> 10 µM	
[N-]=[N+]=NC(c1ccccc1)(c1ccccc1)c1ccccc1	27.8 µM	
C[C@]12CC[C@H](O)CC1=CC[C@@H]1[C@@H]2CC[C@]2(C)C(=N/N)/C(=N\O)C[C@@H]12	> 100 µM	
COc1ccc(CN2C(=O)/C(=C\c3cc(OC)c(OC)c(OC)c3)c3ccccc32)cc1	3.44 µM	1.89 µM
CCOP(=O)(OCC)C(F)(F)c1ccc(CC(NC(=O)OC(C)(C)C)C(=O)O)cc1 (stereo unspecified)	> 10 µM	
Cc1ccccc1OC(C)C(=O)NN1C(=O)CSC1c1ccccc1 (stereo unspecified)	> 100 µM	
c1ccc2c3[nH]c(c2c1)=Nc1ccc(cc1)-c1nc2cc(ccc2o1)N=c1[nH]c(c2ccccc12)=Nc1ccc2nc(oc2c1)-c1ccc(cc1)N=3	> 100 µM	
CC(C)=CCC[C@@H](C)c1c(O)c(O)c(C)c2nccnc12	> 80.7 µM	
Cc1ccc(-c2cc(-c3ccco3)c(C#N)c(=S)n2C2OC(CO)C(O)C(O)C2O)cc1 (stereo unspecified)	> 100 µM	
O=C(Cc1ccc(O)c(O)c1)NCc1c[nH]c2ccccc12	> 100 µM	
COc1nncc2[nH]c(-c3ccccc3)cc12	> 100 µM	
O=S(=O)(c1ccccc1)c1cccc2c1NCCC2	> 10 µM	
COP(=O)(OC)C1=c2c(C)noc2=C2C=COC2C1=O (stereo unspecified)	> 100 µM	
COc1cccc(C2SC(N)=Nc3c2c(C)nn3C(=O)c2ccccc2O)c1 (stereo unspecified)	> 10 µM	

test system: HCT-116 colon; assay: DTP human tumour cell line panel, 48 h

Structure (SMILES)	TGI
CCOC(=O)c1c(CN2CCCC2)n(-c2ccccc2)c2cc(Br)c(O)cc12	30.3 µM
COc1cccc(Nc2nc(-c3cccs3)nc3cc(OC)c(OC)cc23)c1	54 µM
Nn1c(-c2ccccc2)n[nH]c1=O	> 100 µM
Nn1c(Nc2ccc(S(=O)(=O)Nc3ncccn3)cc2)nnc(/C=C/c2c(O)ccc3ccccc23)c1=O	51.1 µM
Cc1cc(-c2nc3ccc(F)cc3s2)ccc1NC(=O)[C@H](C)N	11.4 µM
Cc1cc(Nc2ccc(S(=O)(=O)O)c3cc(S(=O)(=O)O)cc(S(=O)(=O)O)c23)c2ccccc2n1	> 100 µM
Cc1cc(C)nc(NS(=O)(=O)c2ccc(NC(=O)c3ccc4nc5ccccc5c(Nc5ccc(S(N)(=O)=O)cc5)c4c3)cc2)n1	> 100 µM
Nc1c(-c2ccc(Cl)c(Cl)c2)c2ccc([N+](=O)[O-])cc2c(=O)n1-c1nc2ccccc2s1	12.9 µM
CC1(C(=O)O)CCC2(C)CCC3(C)C(=CC(=O)C4C5(C)CCC(O)C(C)(C)C5CCC43C)C2C1 (stereo unspecified)	63 µM
COC(=O)c1c(C)nc2c1cc(O)c1[nH]c(C)c(C)nc12	> 100 µM
Cn1c2ccc3cc2c(=S)c2cc(ccc21)OCCOCCOCCOCCOCCOCCO3	> 10 µM
O=[N+]([O-])c1cc(C=NC23CC4CC(CC(C4)C2)C3)ccc1Cl	19.5 µM
COc1cc(S(=O)(=O)Nc2nc(-c3ccc(N4C(=O)C(CC(=O)O)SC4c4cccs4)cc3)cs2)ccc1Cl (stereo unspecified)	> 100 µM
CCCCCC1=CC(=O)C1(Cl)Cl	28.4 µM
CC(=O)N(C(=O)CC(=O)N1N=C(c2ccccc2)C(N=Nc2ccccc2[N+](=O)[O-])C1=O)c1ccc(Cl)cc1 (stereo unspecified)	> 10 µM
CC(=O)N1C(C(=O)NC2CCCCC2)CSC1c1ccccc1 (stereo unspecified)	> 100 µM
Oc1ccccc1CNCc1nc2ccccc2[nH]1	> 100 µM
COc1ncc(/C=C2\OC(=O)c3ccccc32)c(OC)n1	> 100 µM
CC1(C)O[C@H]2OC(CO[Si](C)(C)C(C)(C)C)C(N=[N+]=[N-])[C@H]2O1 (stereo partly specified)	28.9 µM
C[C@]12CCC3C4=C(CCC3C1CCC2=O)C(=O)[C@H]1O[C@H]1C4=O (stereo partly specified)	2.16 µM
O=[N+]([O-])c1ccc(Cl)cc1N/N=C/c1ccnc2ccccc12	> 100 µM
Oc1[nH]c2ccccc2c1N=Nc1nc(-c2ccc(Br)cc2)cs1	> 100 µM
CC(C)c1cc2c(cc1S(=O)(=O)O)[C@@]1(C)CCC[C@@](C)(C(=O)O)C1CC2 (stereo partly specified)	> 100 µM
N#CC(Cc1ccccc1)N(CCC1=CCCCC1)C(c1ccccc1)c1ccccc1 (stereo unspecified)	> 100 µM
C/C(=C\CBr)CCC(Br)C(C)(C)Br (stereo unspecified)	> 100 µM
C#CCn1c(=O)c2ccccc2n(CC#C)c1=O	> 10 µM
O=C1CCC2(c3ccc(Cl)cc3)Nc3ccncc3N12 (stereo unspecified)	> 10 µM
Oc1ccc(Cc2cc(Cc3ccc(O)cc3)cc(Cc3ccc(O)cc3)c2)cc1	> 50 µM
[N-]=[N+]=NC(c1ccccc1)(c1ccccc1)c1ccccc1	30.2 µM
C[C@]12CC[C@H](O)CC1=CC[C@@H]1[C@@H]2CC[C@]2(C)C(=N/N)/C(=N\O)C[C@@H]12	> 100 µM
